Experimental data reported in publication PMC11357638 (Molecules, 2024).
Changes are numbered by the printed parent chain. Like-named read-outs stand apart in the source and are kept apart here.

What was measured:
TRPV3 = details: read-out: IC50, TRPV3 inhibition; cited from earlier work
[1] = target: T1, human TRPV3 (hTRPV3) channel (Homo sapiens, UniProt Q8NET8); test: Whole-cell patch-clamp of hTRPV3 currents in transfected HEK293T cells; type: cell-based
T1 construct: expressed in transfected cells; host or cells: HEK293T
T1 sequence (Q8NET8 1-790): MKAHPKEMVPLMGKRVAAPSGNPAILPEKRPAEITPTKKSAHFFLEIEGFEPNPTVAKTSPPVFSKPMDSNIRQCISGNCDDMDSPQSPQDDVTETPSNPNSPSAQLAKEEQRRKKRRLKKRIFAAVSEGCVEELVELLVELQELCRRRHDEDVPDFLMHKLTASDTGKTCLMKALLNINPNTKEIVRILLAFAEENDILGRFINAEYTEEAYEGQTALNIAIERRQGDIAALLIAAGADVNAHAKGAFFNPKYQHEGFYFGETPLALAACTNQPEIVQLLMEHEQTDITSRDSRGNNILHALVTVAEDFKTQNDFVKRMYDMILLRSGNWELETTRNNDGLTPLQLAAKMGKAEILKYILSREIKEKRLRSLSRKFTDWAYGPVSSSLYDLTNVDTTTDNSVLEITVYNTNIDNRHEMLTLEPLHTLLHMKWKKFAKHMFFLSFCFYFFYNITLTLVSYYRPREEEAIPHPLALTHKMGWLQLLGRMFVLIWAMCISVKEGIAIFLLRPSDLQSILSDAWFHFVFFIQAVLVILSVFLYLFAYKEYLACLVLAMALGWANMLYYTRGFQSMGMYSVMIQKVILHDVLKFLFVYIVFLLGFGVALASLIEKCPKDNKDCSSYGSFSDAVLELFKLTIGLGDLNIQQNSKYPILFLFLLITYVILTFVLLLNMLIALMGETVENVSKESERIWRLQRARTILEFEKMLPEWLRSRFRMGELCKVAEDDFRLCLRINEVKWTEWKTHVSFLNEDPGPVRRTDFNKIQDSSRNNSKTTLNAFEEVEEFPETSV

hTRPV3 T636A mutant = target: T2, hTRPV3 T636A mutant (Homo sapiens, UniProt Q8NET8, T636A); test: Whole-cell patch-clamp of hTRPV3 T636A mutant in HEK293T cells; type: cell-based
T2 construct: expressed in transfected cells; host or cells: HEK293T
T2 sequence (Q8NET8 1-790 T636A): T1 sequence (Q8NET8 1-790) with T636A

hTRPV3 single channel = target: T3, hTRPV3 single channel (Homo sapiens, UniProt Q8NET8); test: Inside-out single-channel recording of hTRPV3; type: cell-based; details: −60 mV
T3 construct: expressed in transfected cells; host or cells: HEK293T
T3 sequence (Q8NET8 1-790): T1 sequence (Q8NET8 1-790)

hTRPV3 I637A mutant = target: T4, hTRPV3 I637A mutant (Homo sapiens, UniProt Q8NET8, I637A); test: Whole-cell patch-clamp of hTRPV3 I637A mutant in HEK293T cells; type: cell-based; details: I637A hTRPV3, 50 μM 2-APB, +80 mV, Hill fit; read-out: IC50, inhibition of I637A mutant outward currents
T4 construct: expressed in transfected cells; host or cells: HEK293T
T4 sequence (Q8NET8 1-790 I637A): T1 sequence (Q8NET8 1-790) with I637A

[2] = agonist carvacrol at 300 μM alone

In the case of `O=C(/C=C/c1ccc(O)c(O)c1)O[C@@H]1C[C@](O)(C(=O)O)C[C@@H](OC(=O)/C=C/c2ccc(O)c(O)c2)[C@H]1O` [isochlorogenic acid A], the IC50 (TRPV3) is given as 2.7 ± 1.3 µM.
For `O=C(/C=C/c1ccc(O)c(O)c1)OCCc1ccccc1` [CAPE, caffeic acid phenethyl ester], the IC50 [1] was 277 ± 41.9 µM and the IC50 (hTRPV3 T636A mutant) was 506 ± 57.3 µM.
For forsythiaside B, the IC50 (TRPV3) is given as 6.7 ± 0.7 µM.
For `Cc1ccc(C(C)C)cc1O` [carvacrol], the “open frequency (Freq)” value (hTRPV3 single channel; [2]) was 53.55 ± 7.27 Hz, the single-channel conductance (hTRPV3 single channel; [2]) was 179.4 ± 12.8 pS and the “single-channel open probability (POPEN)” value (hTRPV3 single channel; [2]) was 0.56 ± 0.05.
In the case of `C[C@@H]1O[C@@H](O[C@@H]2[C@@H](O)[C@H](OCCc3ccc(O)c(O)c3)O[C@H](CO)[C@H]2OC(=O)/C=C/c2ccc(O)c(O)c2)[C@H](O)[C@H](O)[C@H]1O` [verbascoside], the IC50 (TRPV3) is given as 14.1 ± 3.3 µM.
Work on `COC(=O)/C=C/c1ccc(O)c(O)c1` [CAMC, caffeic acid methyl caffeate] yielded an IC50 ([1]; WT hTRPV3 in HEK293T, whole-cell, activated by 50 μM 2-APB, at +80 mV, Hill fit, mean ± SD, read-out: IC50, inhibition of hTRPV3 currents) of 410 ± 57.9 µM, an IC50 (hTRPV3 I637A mutant) of 522 ± 43.8 µM and an IC50 (hTRPV3 T636A mutant; T636A hTRPV3, 50 μM 2-APB, +80 mV, Hill fit, read-out: IC50, inhibition of T636A mutant outward currents) of 417 ± 45.1 µM.
In the case of `O=C(/C=C/c1ccc(O)c(O)c1)O[C@@H]1[C@@H](OC(=O)/C=C/c2ccc(O)c(O)c2)C[C@@](O)(C(=O)O)C[C@@H]1O` [isochlorogenic acid B], the IC50 (TRPV3) is given as 0.9 ± 0.3 µM.
With `NCCOB(c1ccccc1)c1ccccc1` [2-APB, 2-aminoethoxydiphenylborate] the “open frequency (Freq)” value (hTRPV3 single channel; agonist 2-APB 50 μM alone) was 75.05 ± 6.63 Hz, the single-channel conductance (hTRPV3 single channel; agonist 2-APB 50 μM alone) was 161.6 ± 3.8 pS and the “single-channel open probability (POPEN)” value (hTRPV3 single channel; agonist 2-APB 50 μM alone) was 0.72 ± 0.06.
